# Experimental data published in patent US20090082372A1, “Arylmethylene Substituted N-Acyl-Beta-Amino Alcohols” (priority 2007, published 2009).
# Molecular target: T1, human FSH receptor (Homo sapiens, UniProt P23945)
# T1 construct: expressed in transfected cells; host or cells: CHO cells (hFSHR clone 16)
# T1 sequence (P23945 18-695): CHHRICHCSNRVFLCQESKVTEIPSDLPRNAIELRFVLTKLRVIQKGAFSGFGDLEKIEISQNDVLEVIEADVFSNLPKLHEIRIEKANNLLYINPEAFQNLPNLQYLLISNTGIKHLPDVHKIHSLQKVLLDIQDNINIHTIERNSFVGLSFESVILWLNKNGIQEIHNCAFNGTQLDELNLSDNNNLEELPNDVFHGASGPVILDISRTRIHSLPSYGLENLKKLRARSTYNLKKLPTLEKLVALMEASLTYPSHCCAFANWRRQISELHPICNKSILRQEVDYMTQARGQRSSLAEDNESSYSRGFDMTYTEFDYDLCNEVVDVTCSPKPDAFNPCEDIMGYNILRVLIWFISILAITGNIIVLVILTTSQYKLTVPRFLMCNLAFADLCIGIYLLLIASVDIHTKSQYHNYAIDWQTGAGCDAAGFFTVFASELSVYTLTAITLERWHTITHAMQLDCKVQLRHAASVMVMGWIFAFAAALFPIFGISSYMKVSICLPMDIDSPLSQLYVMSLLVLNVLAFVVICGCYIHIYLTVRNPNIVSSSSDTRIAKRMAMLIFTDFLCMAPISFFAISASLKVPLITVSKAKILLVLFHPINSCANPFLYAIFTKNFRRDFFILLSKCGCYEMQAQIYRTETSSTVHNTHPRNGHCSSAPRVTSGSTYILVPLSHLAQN
# Experiment: HTRF assay for measuring cAMP in cells (FSH antagonism)
# Assay type: cell-based
# Settings: hFSHR clone 16 cells (CHO cells stably transfected with the human FSH receptor); in the presence of 1e-9 mol/l hFSH; 37° C. for 2 h; read-out: IC50 (FSH-antagonistic effect in the HTRF assay)
# Description: HTRF Assay for Measuring cAMP in Cells
# The method is based on a competitive immunoassay between native cAMP, which has been produced by the cells, and cAMP which is labelled with XL665. The tracer binding was visualized by a monoclonal antibody, anti-cAMP labelled with cryptate [HTRF=homogeneous time-resolved fluorescence].
# The specific signal is inversely proportional to the cAMP concentration of the samples employed. The 665 nm/620 nm fluorescence ratio was evaluated.
# The following material was used: 96-well plates for the tissue culture, 96-well plates with black edge and black base (e.g. Fluotrac 600 from Greiner), 96-well plates for the substance dilutions of polypropylene and cAMP Femtomolar (4000 wells Kit, CIS Bio International #62AM1PEC).
# The following reagents were used: BSA (bovine serum albumin) Fraction V protease-free, IBMX (3-isobutyl-1-methylxanthine), hFSH (human follicle stimulating hormone), Triton X-100 analytical grade, potassium fluoride analytical grade, G 418 (Geneticin) and Accutase.
# Buffer 1 (washing and testing buffer) contained PBS, 1 mM CaCl2, 1 mM MgCl2, 0.2% glucose; 0.1% BSA, 1 mM IBMX. Buffer 2 (2× lysis buffer) contained 1% Triton X-100 in PBS (without CaCl2 and MgCl2). Buffer 3 (assay buffer) contained 50 mM potassium phosphate buffer (pH 7.0); 800 mM potassium fluoride; 0.2% BSA (always added fresh).
# On day 1, the cells were seeded in 96-well plates (3×10^4 cells per well hFSHR clone 16 cells (CHO cells stably transfected with the human FSH receptor in 150 μl of medium).
# The next day, test substance dilutions were made up. For this purpose, all the substances were diluted in ice-cold buffer 1 (with or without hFSH), and the substance dilutions were placed on ice until applied to the cells.
# The cell supernatant was then aspirated off, and the cells were washed 2× with 200 μl of buffer 1. The cells were treated with 60 μl of the appropriate substance concentrations at 37° C. for 2 h. The cells were then lysed with 60 μl of buffer 2 (put onto the supernatant) (on a plate shaker at RT for 30 min).
# The test conjugates (XL-665 and anti-cAMP cryptate) were diluted in buffer 3 in accordance with the manufacturers' information. The actual mixture for measurement was pipetted into a black 96-well plate (in each case 15 μl of the cell lysate diluted with 35 μl of buffer 1; firstly 25 μl of XL-665 conjugate were pipetted and, after 10 min, 25 μl of the anti-cAMP cryptate were added). This is followed by incubation at RT for 90 minutes. The measurement was carried out in a PheraStar (BMG).
# Dose-effect curve (hFSH) for the human receptor: 1e-8, 3e-9, 1e-9, 3e-10, 1e-10, 3e-11, 1e-11, 3e-12 mol/l.
# The test substances were employed in suitable dilutions in the absence (test for agonism) and in the presence of 1e-9 mol/l hFSH.
# The values of the well ratio were averaged and then entered directly in SigmaPlot versus the concentrations. The maximum and minimum values were determined for each plate, and half the difference is to be regarded as IC50.
row,IC50 [µM],SMILES
1,10,"COc1ccc2nc(-c3cc(OC)c(OC)c(OC)c3)cc(C(=O)NC(CO)Cc3ccc4ccccc4c3)c2c1 (centres unmarked) [Example 12, 6-Methoxy-2-(3,4,5-trimethoxy-phenyl)-quinoline-4-carboxylic acid (2-hydroxy-1-naphthalen-2-ylmethyl-ethyl)-amide]"
2,1,"COc1ccc(-c2cc3c(c(C(=O)NC(CO)Cc4c[nH]c5cccnc45)c2)OCCCC3)cc1OC (centres unmarked) [Example 26, 7-(3,4-Dimethoxy-phenyl)-2,3,4,5-tetrahydro-benzo[b]oxepine-9-carboxylic acid [1-hydroxymethyl-2-(1H-pyrrolo[3,2-b]pyridin-3-yl)-ethyl]-amide]"
3,9,"CNC(=O)c1ccc(C#Cc2ccc(OC(F)(F)F)c(C(=O)N[C@@H](CO)Cc3n[nH]c4cccc(F)c34)c2)cc1 (stereo in doubt) [Example 16, N-[2-hydroxy-1-(4-fluoro-1H-indazol-3-ylmethyl)-ethyl]-2-trifluoromethoxy-5-[(4-methylaminocarbonyl-phenyl)-ethynyl]-benzamide]"
4,4,"COc1ccccc1C#Cc1ccc(OC(C)C)c(C(=O)NC(CO)Cc2c[nH]c3ncccc23)c1 (centres unmarked) [Example 3, N-[1-Hydroxymethyl-2-(1H-pyrrolo[2,3-b]pyridin-3-yl)-ethyl]-2-isopropoxy-5-(2-methoxy-phenylethynyl)-benzamide]"
5,6.5,"CNC(=O)c1ccc(-c2ccc(OC(C)C)c(C(=O)NC(CO)Cc3c[nH]c4cnccc34)c2)cc1Cl (centres unmarked) [Example 39, 3′-Chloro-4-isopropoxy-biphenyl-3,4′-dicarboxylic acid 3-{[2-hydroxy-1-(1H-pyrrolo[2,3-c]pyridin-3-ylmethyl)-ethyl]-amide}4′-methylamide]"

# The next lines start with the compound.
row,SMILES,IC50 [µM]
1,"COc1ccccc1C#Cc1ccc(OC(C)C)c(C(=O)NC(CO)Cc2c[nH]c3cccnc23)c1 (centres unmarked) [Example 22, N-[1-Hydroxymethyl-2-(1H-pyrrolo[3,2-b]pyridin-3-yl)-ethyl]-2-isopropoxy-5-(2-methoxy-phenylethynyl)-benzamide]",0.2
2,"COc1ccc2nc(-c3cc(OC)c(OC)c(OC)c3)cc(C(=O)N[C@@H](CO)Cc3ccc4ccccc4c3)c2c1 [Example 9, 6-Methoxy-2-(3,4,5-trimethoxy-phenyl)-quinoline-4-carboxylic acid ((R)-2-hydroxy-1-naphthalen-2-ylmethyl-ethyl)-amide]",8
3,"CNC(=O)c1cc(F)cc(-c2ccc(OC(C)C)c(C(=O)NC(CO)Cc3cc4ncccc4[nH]3)c2)c1 (centres unmarked) [Example 24, 5′-Fluoro-4-isopropoxy-biphenyl-3,3′-dicarboxylic acid 3-{[1-hydroxymethyl-2-(1H-pyrrolo[3,2-b]pyridin-2-yl)-ethyl]-amide}3′-methyl amide]",0.07
4,"COc1ccc2nc(-c3cc(OC)c(OC)c(OC)c3)cc(C(=O)N[C@@H](CO)Cc3csc4ccccc34)c2c1 [Example 6, 6-Methoxy-2-(3,4,5-trimethoxy-phenyl)-quinoline-4-carboxylic acid ((R)-2-benzo[b]-thiophen-3-yl-1-hydroxy-methyl-ethyl)-amide]",6
5,"COc1ccccc1C#Cc1ccc(OC(C)C)c(C(=O)NC(CO)Cc2c[nH]c3cnccc23)c1 (centres unmarked) [Example 42, N-[2-Hydroxy-1-(1H-pyrrolo[2,3-c]pyridin-3-ylmethyl)-ethyl]-2-isopropoxy-5-(2-methoxy-phenylethynyl)-benzamide]",5
6,"COc1ccc2nc(-c3ccc(OC)c(F)c3)nc(C(=O)NC(CO)Cc3c[nH]c4cccnc34)c2c1 (centres unmarked) [Example 21, 2-(3-Fluoro-4-methoxy-phenyl)-6-methoxy-quinazoline-4-carboxylic acid [2-hydroxy-1-(1H-pyrrolo[3,2-b]pyridin-3-ylmethyl)-ethyl]-amide]",5
7,"CNC(=O)c1ccc(-c2ccc(OC(F)(F)F)c(C(=O)N[C@@H](CO)Cc3n[nH]c4c(F)cccc34)c2)cc1Cl [Example 14, 3′-Chloro-4-trifluoromethoxy-biphenyl-3,4′-dicarboxylic acid 3-{[2-hydroxy-1-(7-fluoro-1H-indazol-3-ylmethyl)-ethyl]-amide}4′-methylamide]",5
8,"CNC(=O)c1cc(F)cc(-c2ccc(OC(C)C)c(C(=O)NC(CO)Cc3c[nH]c4ncccc34)c2)c1 (centres unmarked) [Example 1, 5′-Fluoro-4-isopropoxy-biphenyl-3,3′-dicarboxylic acid 3-{[2-hydroxy-1-(1H-pyrrolo[2,3-b]pyridin-3-ylmethyl)-ethyl]-amide}3′-methylamide]",1.5
9,"CNC(=O)c1ccc(-c2cc3c(c(C(=O)NC(CO)Cc4c[nH]c5ncccc45)c2)OC(C)(C)C=C3)cc1Cl (centres unmarked) [Example 5, 6-(3-Chloro-4-methylcarbamoyl-phenyl)-2,2-dimethyl-2H-chromene-8-carboxylic acid [2-hydroxy-1-(1H-pyrrolo[2,3-b]pyridin-3-ylmethyl)-ethyl]-amide]",0.065
